In patent US20260297121A1, “MITHRAMYCIN (MTM) 2’ OXIMES” (University of Kentucky Research Foundation, priority 2023, published 2026):
pIC50: −log10 of the molar value. Read-outs that look alike come from different tables or passages of the source.

What was measured:
PC3 [1] = assay: Cytotoxicity, resazurin fluorescence, PC3; type: cell-based; conditions: for GI50 PC3: Table 5, 72 hr
Experimental: (§1) Exemplary compounds of the presently-disclosed subject matter were assessed for cytotoxicity (Table 5) in Ewing sarcoma (TC32) and non-Ewing (PC3 prostate cancer). […] Cells (1000-5000/well) were seeded in 96-well plates and allowed to attach and grow for 24 hr prior to adding compounds in half-log increments from 0.3 nM-10 μM. Cell viability was assessed after 72 hr continuous incubation with compounds using resazurin fluorescence. GI50 values were estimated using GraphPad Prism.

log P = type: physicochemical
PC3 [2] = assay: IC50 in PC3 cells; type: cell-based; conditions: head prints PC2, text PC3
Experimental: (§2) Exemplary compounds of the presently-disclosed subject matter were assessed for activity, including clearance, potency, and selectivity. Results from studies are compiled in Tables 2-4.
(§3) Desirable clearance was identified at lower values of mL hr^−1kg^−1 (e.g., about ≤10 mL hr^−1 kg^−1), desirable potency was identified at lower values of IC50 (e.g., about ≤10 nM in TC32 cells), and desired selectivity was identified at higher ratios of IC50 in PC3/IC50 in TC32 (e.g. about >10).

TC32 cells = assay: Potency IC50 in TC32 cells and selectivity; type: cell-based; conditions: Homo sapiens
Experimental: as §2, §3

[3] = Clearance (CL) / pharmacokinetics; type: in vivo, mice
Experimental: as §2, §3
Pharmacokinetics of exemplary compounds of the presently-disclosed subject matter were studied in mice following bolus IV dosing. Groups of three mice were administered the compound(s) and blood samples were collected via saphenous bleed. Plasma was separated by centrifugation and extracted to quantitate analytes by LC/MS/MS. Sample analysis followed upon the system meeting system suitability criteria customary for fit for purpose analytical methods. FIG. 1A includes data comparing YL-C09 to mithramycin (MTM) dosed separately. FIG. 1B includes data for YL-B171, YL-C110 and MTM dosed in cassette format.

TC32 = assay: Cytotoxicity, resazurin fluorescence, TC32; type: cell-based; conditions: Homo sapiens, TC-32, 72 h, read-out: GI50 TC32, Table 5
Experimental: as §1

[4] = Homo sapiens, PC-3, read-out: IC50 PC2, Table 2
[5] = TC-32, Table 2, read-out: IC50 TC32

Row | Compound | logP (log P; Table 2) | pIC50 (PC3 [2]; [4]) | pIC50 (TC32 cells; [5]) | other results
1 | CO[C@H](C(=NOCCNC(=O)c1[nH]c2ccc(C(F)(F)F)cc2c1-c1ccc(F)c(Cl)c1)[C@@H](O)[C@@H](C)O)[C@@H]1Cc2cc3cc(O[C@H]4C[C@@H](O[C@H]5C[C@@H](O)[C@H](O)[C@@H](C)O5)[C@H](O)[C@@H](C)O4)c(C)c(O)c3c(O)c2C(=O)[C@H]1O[C@H]1C[C@@H](O[C@H]2C[C@@H](O[C@H]3C[C@](C)(O)[C@H](O)[C@@H](C)O3)[C@@H](O)[C@@H](C)O2)[C@H](O)[C@@H](C)O1 [YL-C68] | – | – | – | GI50 PC3 (PC3 [1]): > 1000 nM; log P (log P; Table 3): 4.54
2 | CO[C@H](C(=NOCCNC(=O)c1nnc2nc(C)cc(C)n12)[C@@H](O)[C@@H](C)O)[C@@H]1Cc2cc3cc(O[C@H]4C[C@@H](O[C@H]5C[C@@H](O)[C@H](O)[C@@H](C)O5)[C@H](O)[C@@H](C)O4)c(C)c(O)c3c(O)c2C(=O)[C@H]1O[C@H]1C[C@@H](O[C@H]2C[C@@H](O[C@H]3C[C@](C)(O)[C@H](O)[C@@H](C)O3)[C@@H](O)[C@@H](C)O2)[C@H](O)[C@@H](C)O1 [YL-B162] | -0.56 | 5.52 | 5.55 | –
3 | CO[C@H](C(=NOCCNC(=O)c1cc2cc(-c3cnn(C)c3)ccc2[nH]1)[C@@H](O)[C@@H](C)O)[C@@H]1Cc2cc3cc(O[C@H]4C[C@@H](O[C@H]5C[C@@H](O)[C@H](O)[C@@H](C)O5)[C@H](O)[C@@H](C)O4)c(C)c(O)c3c(O)c2C(=O)[C@H]1O[C@H]1C[C@@H](O[C@H]2C[C@@H](O[C@H]3C[C@](C)(O)[C@H](O)[C@@H](C)O3)[C@@H](O)[C@@H](C)O2)[C@H](O)[C@@H](C)O1 [YL-C20] | 2.1 | 5.99 | 7.16 | –
4 | CO[C@H](C(=NOCCNC(=O)c1ccc2scnc2c1)[C@@H](O)[C@@H](C)O)[C@@H]1Cc2cc3cc(O[C@H]4C[C@@H](O[C@H]5C[C@@H](O)[C@H](O)[C@@H](C)O5)[C@H](O)[C@@H](C)O4)c(C)c(O)c3c(O)c2C(=O)[C@H]1O[C@H]1C[C@@H](O[C@H]2C[C@@H](O[C@H]3C[C@](C)(O)[C@H](O)[C@@H](C)O3)[C@@H](O)[C@@H](C)O2)[C@H](O)[C@@H](C)O1 [YL-C61] | 1.12 | 6.67 | 7.19 | –
5 | CO[C@H](C(=NOCCNC(=O)c1cc2cc(Cl)ccc2[nH]1)[C@@H](O)[C@@H](C)O)[C@@H]1Cc2cc3cc(O[C@H]4C[C@@H](O[C@H]5C[C@@H](O)[C@H](O)[C@@H](C)O5)[C@H](O)[C@@H](C)O4)c(C)c(O)c3c(O)c2C(=O)[C@H]1O[C@H]1C[C@@H](O[C@H]2C[C@@H](O[C@H]3C[C@](C)(O)[C@H](O)[C@@H](C)O3)[C@@H](O)[C@@H](C)O2)[C@H](O)[C@@H](C)O1 [YL-B152] | 2.19 | 7.75 | 8.08 | logP (log P; Table 4): 2.2; pIC50 (PC3 [2]; Homo sapiens, PC-3, read-out: IC50 PC2, Table 4): 7.75; CL ([3]; Table 4): 0.733 mL/min/kg; PK Improvement ([3]; Table 4): 35.9; clearance ([3]; mouse, plasma, iv, Table 2): 0.733 mL/min/kg; pIC50 (TC32 cells; TC-32, Table 4, read-out: IC50 TC32): 8.08
6 | COc1ccc2[nH]c(C(=O)NCCON=C([C@@H](O)[C@@H](C)O)[C@@H](OC)[C@@H]3Cc4cc5cc(O[C@H]6C[C@@H](O[C@H]7C[C@@H](O)[C@H](O)[C@@H](C)O7)[C@H](O)[C@@H](C)O6)c(C)c(O)c5c(O)c4C(=O)[C@H]3O[C@H]3C[C@@H](O[C@H]4C[C@@H](O[C@H]5C[C@](C)(O)[C@H](O)[C@@H](C)O5)[C@@H](O)[C@@H](C)O4)[C@H](O)[C@@H](C)O3)c(-c3ccc(Cl)cc3)c2c1 [YL-C114] | – | – | – | log P (log P; Table 2): 3.58; CL ([3]; Table 2): 0.467 mL/min/kg
7 | CO[C@H](C(=NOCc1ccc2scnc2c1)[C@@H](O)[C@@H](C)O)[C@@H]1Cc2cc3cc(O[C@H]4C[C@@H](O[C@H]5C[C@@H](O)[C@H](O)[C@@H](C)O5)[C@H](O)[C@@H](C)O4)c(C)c(O)c3c(O)c2C(=O)[C@H]1O[C@H]1C[C@@H](O[C@H]2C[C@@H](O[C@H]3C[C@](C)(O)[C@H](O)[C@@H](C)O3)[C@@H](O)[C@@H](C)O2)[C@H](O)[C@@H](C)O1 [YL-C52] | 1.87 | 8.09 | 8.19 | –
8 | CO[C@H](C(=NOCCNC(=O)c1[nH]c2ccc(Cl)cc2c1C1CC1)[C@@H](O)[C@@H](C)O)[C@@H]1Cc2cc3cc(O[C@H]4C[C@@H](O[C@H]5C[C@@H](O)[C@H](O)[C@@H](C)O5)[C@H](O)[C@@H](C)O4)c(C)c(O)c3c(O)c2C(=O)[C@H]1O[C@H]1C[C@@H](O[C@H]2C[C@@H](O[C@H]3C[C@](C)(O)[C@H](O)[C@@H](C)O3)[C@@H](O)[C@@H](C)O2)[C@H](O)[C@@H](C)O1 [YL-C124] | 3.06 | 6.77 | 7.65 | –
9 | CO[C@H](C(=NOCCNC(=O)c1cc2cc(Cl)cc(Cl)c2[nH]1)[C@@H](O)[C@@H](C)O)[C@@H]1Cc2cc3cc(O[C@H]4C[C@@H](O[C@H]5C[C@@H](O)[C@H](O)[C@@H](C)O5)[C@H](O)[C@@H](C)O4)c(C)c(O)c3c(O)c2C(=O)[C@H]1O[C@H]1C[C@@H](O[C@H]2C[C@@H](O[C@H]3C[C@](C)(O)[C@H](O)[C@@H](C)O3)[C@@H](O)[C@@H](C)O2)[C@H](O)[C@@H](C)O1 [YL-B167] | 2.83 | 7.32 | 7.82 | –
10 | CO[C@H](C(=NOCCNC(=O)c1[nH]c2ccc(Cl)cc2c1-c1cnn(C)c1)[C@@H](O)[C@@H](C)O)[C@@H]1Cc2cc3cc(O[C@H]4C[C@@H](O[C@H]5C[C@@H](O)[C@H](O)[C@@H](C)O5)[C@H](O)[C@@H](C)O4)c(C)c(O)c3c(O)c2C(=O)[C@H]1O[C@H]1C[C@@H](O[C@H]2C[C@@H](O[C@H]3C[C@](C)(O)[C@H](O)[C@@H](C)O3)[C@@H](O)[C@@H](C)O2)[C@H](O)[C@@H](C)O1 [YL-C102] | 2.26 | 7.37 | 8.13 | GI50 (PC3 [1]; Homo sapiens, PC-3, 72 h, read-out: GI50 PC3, Table 5): 334 nM; GI50 (TC32): 49 nM
11 | COC(C(=NOCCCNC(=O)c1[nH]c2ccc(Cl)cc2c1-c1ccc(Cl)cc1)C(O)C(C)O)C1Cc2cc3cc(OC4CC(OC5CC(O)C(O)C(C)O5)C(O)C(C)O4)c(C)c(O)c3c(O)c2C(=O)C1OC1CC(OC2CC(OC3CC(C)(O)C(O)C(C)O3)C(O)C(C)O2)C(O)C(C)O1 (stereo not drawn) [YL-C95] | – | – | – | GI50 PC3 (PC3 [1]): > 1000 nM; log P (log P; Table 2): 4.69; CL ([3]; Table 2): 0.433 mL/min/kg
12 | COC(C(=NOCCNC(=O)c1cc2c(=O)n(C)c(=O)n(C)c2[nH]1)C(O)C(C)O)C1Cc2cc3cc(OC4CC(OC5CC(O)C(O)C(C)O5)C(O)C(C)O4)c(C)c(O)c3c(O)c2C(=O)C1OC1CC(OC2CC(OC3CC(C)(O)C(O)C(C)O3)C(O)C(C)O2)C(O)C(C)O1 (stereo not drawn) [YL-B179] | -0.02 | 5.52 | 6.17 | –
13 | COC(C(=NOCCNC(=O)c1cc2cc(O)ccc2[nH]1)C(O)C(C)O)C1Cc2cc3cc(OC4CC(OC5CC(O)C(O)C(C)O5)C(O)C(C)O4)c(C)c(O)c3c(O)c2C(=O)C1OC1CC(OC2CC(OC3CC(C)(O)C(O)C(C)O3)C(O)C(C)O2)C(O)C(C)O1 (stereo not drawn) [YL-B170] | 1.02 | 6.44 | 7.15 | –
14 | COC(C(=NOCCNC(=O)c1cc2cc(C(F)(F)F)ccc2[nH]1)C(O)C(C)O)C1Cc2cc3cc(OC4CC(OC5CC(O)C(O)C(C)O5)C(O)C(C)O4)c(C)c(O)c3c(O)c2C(=O)C1OC1CC(OC2CC(OC3CC(C)(O)C(O)C(C)O3)C(O)C(C)O2)C(O)C(C)O1 (stereo not drawn) [YL-B175] | 2.54 | 8.82 | 8.92 | –
15 | CO[C@H](C(=NOCCNC(=O)c1[nH]c2ccc(C(F)(F)F)cc2c1-c1ccc(Cl)cc1)[C@@H](O)[C@@H](C)O)[C@@H]1Cc2cc3cc(O[C@H]4C[C@@H](O[C@H]5C[C@@H](O)[C@H](O)[C@@H](C)O5)[C@H](O)[C@@H](C)O4)c(C)c(O)c3c(O)c2C(=O)[C@H]1O[C@H]1C[C@@H](O[C@H]2C[C@@H](O[C@H]3C[C@](C)(O)[C@H](O)[C@@H](C)O3)[C@@H](O)[C@@H](C)O2)[C@H](O)[C@@H](C)O1 [YL-C67] | – | – | – | GI50 PC3 (PC3 [1]): > 1000 nM; log P (log P; Table 2): 4.56; log P (log P; Table 3): 4.56; log P (log P; Table 4): 4.6; pIC50 (PC3 [2]; Table 3): 5.91; CL ([3]; Table 2): 0.167 mL/min/kg; CL ([3]; Table 3): 0.167 mL/min/kg; CL ([3]; Table 4): 0.167 mL/min/kg; PK Improvement ([3]; Table 4): 157.8
16 | COc1ccc2[nH]c(C(=O)NCCON=C([C@@H](O)[C@@H](C)O)[C@@H](OC)[C@@H]3Cc4cc5cc(O[C@H]6C[C@@H](O[C@H]7C[C@@H](O)[C@H](O)[C@@H](C)O7)[C@H](O)[C@@H](C)O6)c(C)c(O)c5c(O)c4C(=O)[C@H]3O[C@H]3C[C@@H](O[C@H]4C[C@@H](O[C@H]5C[C@](C)(O)[C@H](O)[C@@H](C)O5)[C@@H](O)[C@@H](C)O4)[C@H](O)[C@@H](C)O3)cc2c1 [YL-B166] | 1.56 | 7.49 | 8.63 | –
17 | COC(C(=NOCCNC(=O)c1[nH]c2ccc(C(F)(F)F)cc2c1-c1ccccc1)C(O)C(C)O)C1Cc2cc3cc(OC4CC(OC5CC(O)C(O)C(C)O5)C(O)C(C)O4)c(C)c(O)c3c(O)c2C(=O)C1OC1CC(OC2CC(OC3CC(C)(O)C(O)C(C)O3)C(O)C(C)O2)C(O)C(C)O1 (stereo not drawn) [YL-C66] | – | – | – | log P (log P; Table 3): 3.84; log P (log P; Table 4): 3.8; pIC50 (PC3 [2]; Table 3): 6.55; CL ([3]; Table 3): 0.2 mL/min/kg; CL ([3]; Table 4): 0.2 mL/min/kg; PK Improvement ([3]; Table 4): 131.5
